From patent US20220324862A1, “PYRIDOPYRIMIDINONE COMPOUNDS” (Acerand Therapeutics (USA) Limited, priority 2021, published 2022) come the findings set out here.

Assay [1] has as its system cellular pERK in NCI-H1975 cells (EGFR/L858R-T790M). In words: pERK Potency Assay. The format is cell-based. The conditions noted are these: Homo sapiens, 1 hour incubation, Western blot, read-out: IC50 value, cellular pERK level. The text has this: The purpose of this assay is to measure the ability of test compounds to inhibit SOS1 function in cells. SOS1 activates RAS proteins by catalyzing the conversion of RAS-GDP to RAS-GTP in response to receptor tyrosine kinase activation. Activation of RAS induces a sequence of cellular signaling events that results in increased phosphorylation of ERK at Threonine 202 and Tyrosine 204 (pERK). The procedure described below measured the level of cellular pERK in response to test compounds in NCI-H1975 cells (EGFR/L858R-T790M).
NCI-H1975 cells were grown and maintained using media and procedures recommended by the ATCC. On the day prior to compound addition, cells were plated in 24-well cell culture plates (0.9 ml/well) and grown overnight in a 37° C., 5% CO2 incubator. Test compounds were prepared with 3-fold serial dilutions in DMSO, with a top concentration of 10 mM. On the day of the assay, 100 uL of each test compound diluted at 1:100 in media was added to each well of cell culture plate with final concentrations of the compound spanning 0.5 nM to 10 uM. After the compound was added, the cells were incubated for 1 hour at 37° C., 5% CO2. Following incubation, culture medium was removed, and the cells were washed once with phosphate buffered saline and lysed with lysis buffer (20 mM Tris-HCl, pH 7.5, 150 mM NaCl, 1 mM EDTA, 1 mM EGTA, 0.8% NP-40 plus 2× protease and phosphatase inhibitors). Cellular pERK level was determined using the Western blot analysis and quantified with Liqor software. Signal from Western blot was plotted and IC50 values were determined by fitting a 4-parameter sigmoidal concentration response model.
On the technique in general: A western blot detects proteins with antibodies after separation by electrophoresis.

The test system of a further assay is NCI-H1975 cells. In words: 3D cell proliferation assay. Type of assay: cell-based. The conditions noted are these: Homo sapiens, ultra low attachment plate, 96 hours, 3D CTG. The protocol:
This assay supports the molecular mode of action of compounds. Low IC50 values are indicative of high potency of the SOS1 inhibition. […] This supports the molecular mode of action of the SOS1 inhibitors as selectively targeting cancer cells dependent on receptor tyrosine kinase-RAS/SOS1-family protein function. Cell proliferation assays were performed in three-dimensional (3D) anchorage-independent conditions in 96 well ultra-low attachment plate with the following human cell lines:
NCI-H1975: human non-small cell lung cancer (NSCLC) with wild type KRAS and EGFR L858R/T790M mutation;
Cell lines were purchased from the American Type Culture Collection (ATCC), NCI, or European Collection of Authenticated Cell Cultures (ECACC). All cell lines were maintained in RPMI-1640 or DMEM with 10% heat inactivated fetal bovine serum.
Cells growing in log phase were detached with Gibco™ TrypLE™ Express Enzyme and plated in 96 well ultra low attachment plate at 15000 to 20000 cells/well in 100 μl of media. After overnight incubation at 37° C. and 5% CO2, the cells were treated with compounds (50 μL/well) at the final concentrations spanning 1 nM to 20 μM. Cells were incubated at 37° C., 5% CO2 and 95% humidity incubator for 96 hours. At the end of incubation, a 3D CTG reagent from Promega was added to each well according to vendors recommendation and mixed for 10 minutes in dark. The luminescence signals were determined using Biotek plate reader. The data was fitted using a sigmoidal curve analysis program (GraphPAD Prism) with variable hill slope.

The structures appear in SMILES notation.

For `C#C[C@@H](Nc1nc(C)nc2cc(=O)n(C3(C(F)F)CC3)cc12)c1cccc(C(F)(F)F)c1C` [Compound 9, (R)-6-(1-(difluoromethyl)cyclopropyl)-2-methyl-4-((1-(2-methyl-3-(trifluoromethyl)phenyl)prop-2-yn-1-yl)amino)pyrido[4,3-d]pyrimidin-7(6H)-one], the IC50 (in general, the concentration at which inhibition is half-maximal) was 100 to 500 nM in assay [1] and below 100 nM in the assay on NCI-H1975 cells.

For the compound `C#C[C@@H](Nc1nc(C)nc2c1cc(C1(OC)CCN(C(C)=O)CC1)c(=O)n2C)c1cccc(C(F)(F)F)c1C` [Compound 55, 6-(1-acetyl-4-methoxypiperidin-4-yl)-2,8-dimethyl-4-{[(1R)-1-[2-methyl-3-(trifluoromethyl)phenyl]prop-2-yn-1-yl]amino}-7H,8H-pyrido[2,3-d]pyrimidin-7-one], the IC50 (in assay [1]; with NCI-H1975 cells) was below 100 nM throughout.

For the compound `C#C[C@@H](Nc1ncnc2c1cc(C1(O)CCN(C(C)=O)C1)c(=O)n2C)c1cccc(C(F)F)c1F` (stereo partly drawn) [Compound 43, 6-(1-acetyl-3-hydroxypyrrolidin-3-yl)-4-{[(1R)-1-[3-(difluoromethyl)-2-fluorophenyl]prop-2-yn-1-yl]amino}-8-methyl-7H,8H-pyrido[2,3-d]pyrimidin-7-one], the IC50 was below 100 nM in assay [1] and 100 to 500 nM in the assay with NCI-H1975 cells.

Turning to `C#C[C@@H](Nc1nc(C)nc2cc(=O)n(C3CCOCC3)cc12)c1cccc(C(F)(F)F)c1C` [Compound 4, (R)-2-methyl-4-((1-(2-methyl-3-(trifluoromethyl)phenyl)prop-2-yn-1-yl)amino)-6-(tetrahydro-2H-pyran-4-yl)pyrido[4,3-d]pyrimidin-7(6H)-one], the IC50 is below 100 nM in assay [1] and 100 to 500 nM with NCI-H1975 cells.

`C#C[C@@H](Nc1ncnc2c1cc(C1(NC(C)=O)CCOCC1)c(=O)n2C)c1cccc(C(F)(F)F)c1C` [Compound 58, (R)-N-(4-(8-methy-4-((1-(2-methyl-3-(trifluoromethyl)phenyl)prop-2-yn-1-yl}amino)-7-oxo-7,8-dihydropyrido[2,3-d]pyrimidin-6-yl)tetrahydro-2H-pyran-4-yl)acetamide]: the IC50 (in assay [1]; in the assay on NCI-H1975 cells) was below 100 nM in each case.

For `C#C[C@@H](Nc1ncnc2c1cc(C1(O)CCN(C(C)=O)CC1)c(=O)n2C)c1cccc(C(F)F)c1F` [Compound 46, 6-(1-acetyl-4-hydroxypiperidin-4-yl)-4-{[(1R)-1-[3-(difluoromethyl)-2-fluorophenyl]prop-2-yn-1-yl]amino}-8-methyl-7H,8H-pyrido[2,3-d]pyrimidin-7-one], the IC50 (in assay [1]; in the assay on NCI-H1975 cells) was below 100 nM each time.

For the compound `C#C[C@@H](Nc1ncnc2c1cc(C1(NC(C)=O)CCN(C(C)=O)CC1)c(=O)n2C)c1cccc(C(F)(F)F)c1C` [Compound 57, (R)-N-(1-acetyl-4-(8-methy-4-((1-(2-methyl-3-(trifluoromethyl)phenyl)prop-2-yn-1-yl)amino)-7-oxo-7,8-dihydropyrido[2,3-d]pyrimidin-6-yl)piperidin-4-yl)acetamide], the IC50 (in assay [1]; in the assay on NCI-H1975 cells) was below 100 nM throughout.

Consider `C#C[C@@H](Nc1ncnc2c1cc(C1(OC)CCN(C(C)=O)C1)c(=O)n2C)c1cccc(C(F)F)c1F` (stereo partly drawn) [Compound 49, 6-(1-acetyl-3-methoxypyrrolidin-3-yl)-4-{[(1R)-1-[3-(difluoromethyl)-2-fluorophenyl]prop-2-yn-1-yl]amino}-8-methyl-7H,8H-pyrido[2,3-d]pyrimidin-7-one], for which the IC50 (in assay [1]; in the assay on NCI-H1975 cells) was below 100 nM in each case.

In the case of `C#C[C@@H](Nc1ncnc2c1cc(C1(OC)CCN(C(C)=O)CC1)c(=O)n2C)c1cccc(C(F)F)c1F` [Compound 48, (R)-6-(1-acetyl-4-methoxypiperidin-4-yl)-4-((1-(3-(difluoromethyl)-2-fluorophenyl)prop-2-yn-1-yl)amino)-8-methylpyrido[2,3-d]pyrimidin-7(8H)-one], the IC50 (in assay [1]; in the assay with NCI-H1975 cells) was below 100 nM in each case.

On to `C#C[C@@H](Nc1nc(C)nc2c1cc(C1(O)CCN(C(C)=O)CC1)c(=O)n2C)c1cccc(C(F)(F)F)c1C` [Compound 54, 6-(1-acetyl-4-hydroxypiperidin-4-yl)-2,8-dimethyl-4-{[(1R)-1-[2-methyl-3-(trifluoromethyl)phenyl]prop-2-yn-1-yl]amino}-7H,8H-pyrido[2,3-d]pyrimidin-7-one], for which the IC50 (in assay [1]; with NCI-H1975 cells) was below 100 nM in each case.

Take `C#C[C@@H](Nc1nc(C)nc2c1cc(C1(F)CCN(C(C)=O)CC1)c(=O)n2C)c1cccc(C(F)(F)F)c1C` [Compound 56, 6-(1-acetyl-4-fluoropiperidin-4-yl)-2,8-dimethyl-4-{[(1R)-1-[2-methyl-3-(trifluoromethyl)phenyl]prop-2-yn-1-yl]amino}-7H,8H-pyrido[2,3-d]pyrimidin-7-one]: the IC50 (in assay [1]; in the assay on NCI-H1975 cells) was below 100 nM throughout.
